Measurements as given in patent publication US6110907A, “Synthesis of platinum complexes and uses thereof” (Dalian Institute of Chemical Physics, Chinese Academy of …, priority 1998, dated 2000).
Like-named read-outs stand apart in the source and are kept apart here.

Legend:
[1] = background statement; cited from earlier work
[2] = cited from earlier work
[3] = tested on: kidney; assay: 5-Day Parenteral Acute Toxicity Trial, kidney histopathology; format: in vivo, ICR mice; conditions: 1/12 LD10/day for 5 days, i.p., per animal
Protocol: (§1) Conditions: Temperature: 22° C.±3° C.; Relative humidity: 30-70 T; Light: 12:12. Animals were housed in twos or threes depending on group numbers.
(§2) Histopathology of liver and kidney were examined for each animal.

[4] = tested on: liver; assay: 5-Day Parenteral Acute Toxicity Trial, liver histopathology; format: in vivo, ICR mice; conditions: 1/12 LD10/day for 5 days, i.p., per animal
Protocol: as §1, §2

[5] = tested on: CNE-2; assay: In vitro antitumor activity, MTT assay, CNE-2; format: cell-based, human; conditions: CNE-2, 48 hours
Protocol: (§3) Drugs: Drugs to be tested were dissolved in complete medium at twice the highest concentration to be used, followed by filter (0.22 μm) sterilization. A series of log dilutions were made of each drug solution using complete medium and stored at r.t. until use.
(§4) Cells: L1210, H-522 (human lung), HT-29 (human colon), Hela, CC3 (human cervix) were obtained from the American Type Culture Collection (ATCC). CNE-1 and CNE-2 (human nasopharyngeal) were obtained from The Hong Kong Cancer Institute, The Chinese University of Hong Kong.
(§5) In vitro drug exposure: Trypsinised cells were adjusted to a concentration of 3×10^4 cells/ml in complete medium and for each drug to be tested, 0.1 ml of the cell suspension was added to each of 48 wells of a 96-well microculture plate. The plate was then incubated at standard conditions for 24 hours in order to allow the cells to attach to the bottom of the well. To each well of the control cultures, 0.1 ml of complete medium was added. […]
(§6) MTT assay: The MTT (tetrazolium) assay was used to determine the growth-inhibitory effects of different drugs. […] The amount of reduced MTT was determined by spectrophotometric means (540 nm).
(§7) Data analysis: The mean OD for all 48 control wells was determined. For each concentration of each drug, the mean OD of the 6 wells was determined and the "Percent of Control" values were determined and plotted. […]

[6] = tested on: Hela; assay: In vitro antitumor activity, MTT assay, Hela; format: cell-based, human; conditions: 48 hours
Protocol: as §3, §4, §5, §6, §7

[7] = tested on: ICR mice; assay: Toxicity testing, LD50 (Example 14); format: in vivo; conditions: in 0.9% NaCl, observed for 6 days
Protocol: The toxicity tests used ICR mice (30-40 g), each group containing 12-13 mice. […] The test and control compounds were dissolved in 0.9% NaCl to an appropriate concentration.

[8] = tested on: CNE-1; assay: In vitro antitumor activity, MTT assay, CNE-1; format: cell-based, human; conditions: CNE-1, 48 hours
Protocol: as §3, §4, §5, §6, §7

[9] = tested on: H522; assay: In vitro antitumor activity, MTT assay, H522; format: cell-based, human; conditions: H522, 48 hours
Protocol: as §3, §4, §5, §6, §7

[10] = tested on: L1210; assay: In vitro antitumor activity, MTT assay, L1210; format: cell-based, mouse; conditions: L1210, 48 hours
Protocol: as §3, §4, §5, §6, §7

[11] = tested on: ICR mice; assay: In vivo toxicity, LD50 (second series); conditions: male, intraperitoneal
Protocol: Animals: ICR mice, male, 30 g, 10 animals per test/control group.
Dose: Test/control drug were dissolved in normal saline. Four doses, each increasing by 10-20% were injected intraperitoneally into mice. 10 mice were used for each dose point.

[12] = tested on: CC3; assay: In vitro antitumor activity, MTT assay, CC3; format: cell-based, human; conditions: CC3, 48 hours
Protocol: as §3, §4, §5, §6, §7

[13] = tested on: HT29; assay: In vitro antitumor activity, MTT assay, HT-29; format: cell-based, human; conditions: HT29, 48 hours
Protocol: as §3, §4, §5, §6, §7

| SMILES | LD50 [1] [mg/kg] | KIDNEY Normal ([3]; female) | KIDNEY Normal ([3]; male) | LIVER Normal ([4]; female) | LIVER Normal ([4]; male) | IC50 [5] [µM] | IC50 [6] [µM] | IC50 [8] [µM] | IC50 [9] [µM] | IC50 [10] [µM] | IC50 [12] [µM] | IC50 [13] [µM] | further results |
| --- | --- | --- | --- | --- | --- | --- | --- | --- | --- | --- | --- | --- | --- |
| C[C@@]12C(=O)OC(=O)[C@]1(C)[C@H]1CC[C@@H]2O1 [Cantharidin, cantharidin] | 1 | √ | √ | √ | √ |  |  |  |  |  |  |  | side effects ([2]; background statement): nausea and vomiting, dysphagia, hematemesis, gross hematuria and dysuria; side effects ([2]; background statement, listed as cantharidin): severe side-effects such as nausea, vomiting and diarrhoea |
| N.N.O=C([O-])C1(C(=O)[O-])CCC1.[Pt+2] [Carboplatin, carboplatin] |  | √ | √ | √ | √ | 126 | 244 | 174 | 287 | 48.8 | 205 | 734 | LD50 [7]: 190 mg/kg; side effects ([2]; in vivo): strongly irritates the gastrointestinal tract; Solubility in water (pH 6): 10000 µg/mL; Solubility (water): ~10000 µg/mL; LD50 [11]: 203.20 mg/kg |
| N.N.[Cl][Pt][Cl] [Cisplatin, cisplatin] |  |  |  |  |  | 6.04 | 8.56 | 6.36 | 12.1 | 1.63 | 6.25 | 38.3 |  |
| O=C(O)C1C2CCC(O2)C1C(=O)O (centres unmarked) [corresponding dicarboxylic acid] | 14 |  |  |  |  |  |  |  |  |  |  |  |  |
| O=C1OC(=O)C2C3CCC(O3)C12 (centres unmarked) [demethyl cantharidin] | 4 |  |  |  |  |  |  |  |  |  |  |  |  |
